Consider two molecules from patent US12343319B2, “Compositions and methods for treatment of diseases and disorders” (Atai Therapeutics Inc., priority 2023, dated 2025).

One data set relates to Male WKY rats. Description: Sleep-wake behavior, EEG power, body temperature and locomotor activity in WKY rats. Format: in vivo, rat. As for the experimental part:
Male WKY rats (n=7, 289-388 g at the start of dosing) were housed in groups of 2-3 animals per cage with standard housing conditions. For implantation of the EEG electrodes and radio transmitter, the animals were anesthetized with isoflurane (2-5% in oxygen at 11/min) throughout the procedure. The scalp, neck and right flank were cleared of hair using clippers and cleaned using diluted Hibitane (chlorhexidine, 50% (v/v) in water). A non-steroidal anti-inflammatory agent was administered (carprofen 5 mg/kg, s.c.) and the animals placed on a homeothermic blanket (37° C.) with the head fixed in a stereotaxic frame. Incisions were made in the scalp and neck, as well as in the right flank. Blunt dissection of the abdominal muscle was then made to gain access to the peritoneal cavity. A radio transmitter (HD-S02, Data Sciences International) was implanted in the peritoneal cavity and secured to the muscle wall with non-absorbable sutures. The wires of the transmitter were passed using a 19G needle through the muscle wall and then sub-dermally to the scalp to act as Electroencephalogram (EEG)/Electromyograph (EMG) electrodes. The scalp was cleared of connective tissue and two craniotomies were made with a trepanning drill (fronto-parietal coordinates; Bregma+2 mm anterior, midline+1.0 mm lateral and Lambda 0 mm, +1.5 mm lateral). The positive EEG electrode was attached to the anterior craniotomy and the negative EEG electrode to the posterior craniotomy. Both electrodes were secured in place using a suitable adhesive agent (cyanoacrylate gel, RS components). A second set of electrodes were sutured into the nuchal muscle to act as EMG electrodes. All incisions were closed using absorbable suture.
All animals were allowed to recover in a warm environment and given 5 ml of saline subcutaneously (s.c.). Animals were kept singly in the cage until the next day, then pair housed for the duration of post-surgical recovery (minimum 7 days). During the recovery period, the rats received 5 days of standard post-operative care with no further experimental procedures until the pre-operative body weight was regained. The animals were maintained on a 12/12 hour light dark cycle (08:00 am lights on) after the surgery. Home cages and post-operative cages contained bedding and nesting material, along with environmental enrichment such as wooden chew-sticks and plastic tunnels.
On test days, ˜60 minutes after lights-on, animals were placed in recording boxes similar to their home-cages, except that environmental enrichment was restricted to a large bundle of nesting and bedding material, to avoid interference with the telemeter signals. Then, data acquisition was initiated for confirmation of signal quality. EEG and EMG data were acquired using intraperitoneal HD-S02 transmitters (DSI, New Brighton, MN) and Spike2 software (CED). EEG and EMG signals were digitized 500 samples/second, amplified 1000× and bandpass filtered at 0.5-100 Hertz (Hz). After 60 minutes of habituation, each animal was briefly removed from its box and dosed via the intraperitoneal (i.p.) route in a volume of 2 mL/kg. Test conditions included saline vehicle, psilocybin (10 mg/kg) positive control, compound 2-1 at 3, 10 and 30 mg/kg and compound 2-2 at 10, 17 and 30 mg/kg. Doses were based on the molecular weight of the free bases. compound 2-1 and compound 2-2 dosing solutions were prepared in 40% (w/v) hydroxypropyl-beta-cyclodextrin. After dosing, animals were immediately put back into the recording boxes, the experimenter left the room, and recordings continued uninterrupted for 23 hours. At the end of the recording session, the transmitters were turned off and the animals were returned to their home cages. All animals received all treatment conditions in a pseudo randomized cross-over fashion with a minimum washout period of 7 days between doses.
All data was aligned to zero (the time of dosing), with epochs defined as non-overlapping 10-second time segments. […]

The target of a further data set is 5-HT2A (mouse) (Mus musculus, UniProt P35363). As to the kind of experiment: β-Arrestin, mouse 5-HT2A. Type of data set: cell-based. The settings on record: for Emax: β-Arrestin, mouse 5-HT2A, read-out: Emax (%5-HT). The text has this:
Overall, in vitro activity at rodent 5-HT2A and 5-HT2B receptors is consistent with the human receptor results, with compound 2-1 acting as a potent and selective 5-HT2A agonist.
Overall, in vitro activity at rodent 5-HT2A and […] receptors is consistent with the human receptor results, with compound 2-2 acting as a potent and selective 5-HT2A agonist. In Table 5, ND indicates not determined.

The next data set deals with T1, 5-HT7D (Homo sapiens, UniProt P34969).
T1 construct: expressed in transfected cells
T1 sequence (P34969 whole entry): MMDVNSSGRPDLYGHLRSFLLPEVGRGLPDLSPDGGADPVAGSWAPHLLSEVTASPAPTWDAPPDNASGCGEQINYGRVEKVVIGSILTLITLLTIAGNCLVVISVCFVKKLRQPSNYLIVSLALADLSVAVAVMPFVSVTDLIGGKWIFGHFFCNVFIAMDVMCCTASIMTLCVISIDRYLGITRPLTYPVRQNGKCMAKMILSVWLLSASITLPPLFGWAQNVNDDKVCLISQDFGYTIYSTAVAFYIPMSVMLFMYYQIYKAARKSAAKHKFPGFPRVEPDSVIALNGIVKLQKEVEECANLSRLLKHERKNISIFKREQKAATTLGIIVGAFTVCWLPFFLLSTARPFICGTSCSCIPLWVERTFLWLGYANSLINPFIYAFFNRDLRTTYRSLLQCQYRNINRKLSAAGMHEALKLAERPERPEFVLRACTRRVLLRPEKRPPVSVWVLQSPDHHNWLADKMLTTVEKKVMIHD
As to the kind of experiment: cAMP, 5-HT7D. Type of data set: cell-based. As for the experimental part: (§1) In vitro pharmacology studies were performed to evaluate the effects of compound 2-1 on functional activity of several 5-HT receptors using recombinant target overexpression cell culture systems. The effect of compound 2-1 on G protein-dependent signaling was investigated at 5-HT2A, 5-HT2B, and 5-HT2C receptors with calcium mobilization and IPOne assays; and at 5-HT1A, 5-HT1B, 5-HT1F, 5-HT5A, and 5-HT7D receptors with a cAMP assay. G protein-independent signaling was investigated at the 5-HT2A receptor with a β-Arrestin assay.
(§2) In vitro pharmacology studies were performed to evaluate the effects of compound 2-2 on functional activity at several 5-HT receptors using recombinant target overexpression cell culture systems. The effect of compound 2-2 on G protein-dependent signaling was investigated at 5-HT2A, 5-HT2B, and 5-HT2C receptors with calcium mobilization and IPOne assays; and at 5-HT1A, 5-HT1B, 5-HT1F, 5-HT5A, and 5-HT7D receptors with a cAMP assay. G protein-independent signaling was investigated at the 5-HT2A receptor with a β-arrestin assay. […] In Table 4, 5-HT receptor selectivity was calculated using ΔΔlog(Emax/EC50). Assay reference α-Me-5-HT or 5-HT was used for normalization at each receptor (5-HT2A/5-HT2B selectivity=1; 5-HT2A/5-HT2C selectivity=1). ND in Table 4 indicates, not determined, plateau was not reached within the concentration range tested to determine Emax.

The next data set has as its target T2, 5-HT2B (Homo sapiens, UniProt P41595).
T2 construct: expressed in transfected cells
As to the kind of experiment: IPOne, 5-HT2B. Conditions: for Emax: IPOne, human 5-HT2B, read-out: Emax (% α-Me-5-HT). Format: cell-based. The method, then: as §1, §2

In another data set the target is T3, 5-HT1F (Homo sapiens, UniProt P30939).
T3 construct: expressed in transfected cells
T3 sequence (P30939 1-366): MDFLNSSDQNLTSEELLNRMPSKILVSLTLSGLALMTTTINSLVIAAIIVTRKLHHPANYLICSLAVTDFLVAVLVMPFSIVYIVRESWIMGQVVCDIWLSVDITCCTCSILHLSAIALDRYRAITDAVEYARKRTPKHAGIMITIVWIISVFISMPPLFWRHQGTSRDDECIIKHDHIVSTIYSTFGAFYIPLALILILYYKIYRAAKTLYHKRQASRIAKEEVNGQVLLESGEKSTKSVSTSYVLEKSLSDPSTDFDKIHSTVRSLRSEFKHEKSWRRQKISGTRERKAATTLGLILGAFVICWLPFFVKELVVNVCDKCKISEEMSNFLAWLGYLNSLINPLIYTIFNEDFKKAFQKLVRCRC
As to the kind of experiment: cAMP, 5-HT1F. Format: cell-based. As for the experimental part: as §1, §2

Setting [1] is: male WKY rats, IP, initial 4 hours following dosing.
[2] abbreviates: over 6 hours post dose, WKY rats, IP.

Structures are written as SMILES.

T2 sequence (P41595 whole entry): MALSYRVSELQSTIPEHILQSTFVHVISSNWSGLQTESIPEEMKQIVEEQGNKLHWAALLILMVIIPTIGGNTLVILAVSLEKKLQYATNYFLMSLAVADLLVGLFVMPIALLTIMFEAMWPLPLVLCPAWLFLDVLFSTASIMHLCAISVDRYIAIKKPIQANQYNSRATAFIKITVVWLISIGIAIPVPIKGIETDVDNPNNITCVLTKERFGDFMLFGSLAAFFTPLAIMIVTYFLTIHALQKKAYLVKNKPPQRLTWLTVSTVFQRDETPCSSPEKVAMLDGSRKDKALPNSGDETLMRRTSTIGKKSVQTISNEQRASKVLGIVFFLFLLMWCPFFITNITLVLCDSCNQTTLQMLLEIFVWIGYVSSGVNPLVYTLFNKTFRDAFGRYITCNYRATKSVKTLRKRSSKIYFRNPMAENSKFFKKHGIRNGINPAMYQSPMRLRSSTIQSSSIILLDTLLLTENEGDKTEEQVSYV
Chain of 5-HT2A (mouse) (P35363 whole entry): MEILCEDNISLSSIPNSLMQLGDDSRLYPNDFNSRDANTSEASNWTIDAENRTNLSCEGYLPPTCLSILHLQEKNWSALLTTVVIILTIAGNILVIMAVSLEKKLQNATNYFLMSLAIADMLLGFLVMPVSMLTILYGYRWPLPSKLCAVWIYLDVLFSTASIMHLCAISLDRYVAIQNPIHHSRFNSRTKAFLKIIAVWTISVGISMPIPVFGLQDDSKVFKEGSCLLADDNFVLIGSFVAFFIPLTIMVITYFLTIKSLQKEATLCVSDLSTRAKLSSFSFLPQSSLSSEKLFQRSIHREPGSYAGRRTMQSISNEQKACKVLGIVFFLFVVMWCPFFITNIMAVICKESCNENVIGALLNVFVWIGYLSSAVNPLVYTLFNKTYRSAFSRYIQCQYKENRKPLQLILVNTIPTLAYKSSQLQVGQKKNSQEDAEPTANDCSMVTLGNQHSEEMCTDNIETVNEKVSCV

Broadly, the EC50 is the concentration giving half of the maximal effect. Lower therefore signals higher potency in that assay. For orientation: Emax means the greatest response seen or fitted, relative to the assay's reference. Regarding `COc1ccc(OC)c(CCNCc2cc(C)cc(Cl)c2)c1` [Compound 2-1, N-(3-chloro-5-methylbenzyl)-2-(2,5-dimethoxyphenyl)ethan-1-amine], the “non-REM sleep amount vs vehicle” value in the data set with Male WKY rats (3 mg/kg i.p., interval starting at 5 hours post dose) is “significantly increased”. Also, the “latency to non-REM (NREM) sleep vs vehicle” value in the data set on Male WKY rats (10 mg/kg i.p.) is reported as “significantly increased”. Besides, the “persistence of significant effect on delta power during non-REM sleep” value in the data set with Male WKY rats (30 mg/kg i.p.) is reported as “persisted through the period starting at 4 hours post dose”. For the same molecule, the “high gamma power during waking” value in the data set on Male WKY rats (30 mg/kg i.p., over 24 hours post dose) was “significant and lasting decrease”. Besides, the “amount of time spent in wake vs vehicle” value in the data set on Male WKY rats (3, 10 and 30 mg/kg i.p.) is “significantly increased”. Further, the “amount of time spent in non-REM sleep vs vehicle” value in the data set with Male WKY rats (3, 10 and 30 mg/kg i.p., first 3 hours after administration) is “significantly decreased”. Also, the “low frequency (delta and theta) power during non-REM sleep” value in the data set on Male WKY rats (3, 10 and 30 mg/kg i.p., post-dose period 0-2 hours) is listed as “significantly decreased”. The “latency to REM sleep vs vehicle” value in the data set on Male WKY rats (10 and 30 mg/kg i.p.) was “significantly increased”. Also, the “amount of time spent in REM sleep vs vehicle” value in the data set with Male WKY rats (10 and 30 mg/kg i.p., starting in the third hour post dose) was “significantly decreased”. Besides, the “waking high gamma power” value with Male WKY rats (setting [1]) was “decreased”. In addition, the “waking theta and beta power” value with Male WKY rats (setting [1]) is given as “significantly increased”. In addition, in the data set on Male WKY rats (setting [2]), the body temperature result is given as “↓ (for 6 h)”. The EC50 on 5-HT2A (mouse) is 0.00437 µM; at 5-HT7D, > 100 µM; on 5-HT2B, 0.0347 µM; on 5-HT1F, > 9 µM. Moreover, the Emax turned out to be 65% on 5-HT2A (mouse) and 77.6% on 5-HT2B. For the same molecule, the “agonist activity (in words)” value at 5-HT2B (human 5-HT2B receptor) is listed as “full agonist activity”.
Take `COc1ccc(OC)c(CCNCc2cc(C)cc(F)c2)c1` [Compound 2-2, 2-(2,5-dimethoxyphenyl)-N-(3-fluoro-5-methylbenzyl)ethan-1-amine]: the “effects on body temperature and locomotor activity” value in the data set with Male WKY rats (male WKY rats) is given as “minimal effects”. Further, the Locomotor activity result with Male WKY rats (setting [2]) is reported as “No Δ (No significant change)”. Also, the EC50 on 5-HT2A (mouse) was 0.0218 µM; on 5-HT7D, > 100 µM; on 5-HT2B, 0.0811 µM; at 5-HT1F, > 25 µM. For the same molecule, the Emax came to 60.2% on 5-HT2A (mouse) and 49.3% at 5-HT2B.
